Active and inactive are the calls of the source. The rule behind the calls is not given here.
How the values were obtained:
BEL-7404 tumor cell line = experiment: Antiproliferative activity against human Bel-7404 tumor cell line assessed as reduction in cell growth incubated for 48 hrs by MTT assay; assay type: functional, cell-based; conditions: BEL-7404, 48 h
MCF7 = experiment: Antiproliferative activity against human MCF7 cells assessed as reduction in cell growth incubated for 48 hrs by MTT assay; assay type: functional, cell-based; conditions: MCF7, 48 h
[1] = Cytotoxicity against […] tumor cell line assessed as reduction in cell viability incubated for 48 hrs by MTT assay; conditions: L929, 48 h
MGC-803 [2] = experiment: Inhibition of topoisomerase 2 purified from human MGC-803 cells assessed as decrease in relaxation of supercoiled pBR322 plasmid DNA at 20 uM using pBR322 plasmid DNA as substrate incubated for 30 mins by agarose gel electrophoresis; assay type: cell-free
MGC-803 [3] = experiment: Antiproliferative activity against human MGC-803 cells assessed as reduction in cell growth incubated for 48 hrs by MTT assay; assay type: functional, cell-based; conditions: MGC-803, 48 h
HeLa = experiment: Antiproliferative activity against human HeLa cells assessed as reduction in cell growth incubated for 48 hrs by MTT assay; assay type: functional, cell-based
[4] = target: T1, DNA topoisomerase 1 (Homo sapiens) (UniProt P11387); experiment: Inhibition of human topoisomerase 1 assessed as decrease in relaxation of supercoiled pBR322 plasmid DNA at 100 uM using pBR322 plasmid DNA as substrate incubated for 30 mins by agarose gel electrophoresis
T1 sequence (whole entry): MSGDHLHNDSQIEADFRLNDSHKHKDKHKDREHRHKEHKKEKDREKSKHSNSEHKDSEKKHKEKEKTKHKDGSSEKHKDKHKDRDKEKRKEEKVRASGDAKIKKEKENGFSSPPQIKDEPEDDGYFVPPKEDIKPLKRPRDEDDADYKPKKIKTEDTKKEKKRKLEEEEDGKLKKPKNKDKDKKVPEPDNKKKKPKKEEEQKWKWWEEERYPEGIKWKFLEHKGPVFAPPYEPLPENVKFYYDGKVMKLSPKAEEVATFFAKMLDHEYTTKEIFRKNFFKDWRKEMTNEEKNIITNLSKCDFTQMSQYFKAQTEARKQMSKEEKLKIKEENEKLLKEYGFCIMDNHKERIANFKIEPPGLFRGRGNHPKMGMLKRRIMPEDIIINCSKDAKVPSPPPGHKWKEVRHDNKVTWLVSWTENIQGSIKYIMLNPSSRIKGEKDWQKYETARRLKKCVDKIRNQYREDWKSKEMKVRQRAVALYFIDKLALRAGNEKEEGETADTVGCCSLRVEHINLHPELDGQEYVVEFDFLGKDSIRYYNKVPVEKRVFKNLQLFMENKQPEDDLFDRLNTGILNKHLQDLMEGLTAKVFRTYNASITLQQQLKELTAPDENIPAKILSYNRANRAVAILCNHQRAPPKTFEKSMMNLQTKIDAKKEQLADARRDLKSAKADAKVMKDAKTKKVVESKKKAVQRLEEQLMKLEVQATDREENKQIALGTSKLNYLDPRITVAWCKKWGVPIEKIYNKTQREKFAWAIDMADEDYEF

MGC-803 [5] = experiment: Inhibition of topoisomerase 2 purified from human MGC-803 cells assessed as decrease in relaxation of supercoiled pBR322 plasmid DNA at 100 uM using pBR322 plasmid DNA as substrate incubated for 30 mins by agarose gel electrophoresis; assay type: cell-free
MGC-803 [6] = experiment: Induction of cell cycle arrest in human MGC-803 cells assessed as S phase at 10 uM incubated for 48 hrs by PI staining based flow cytometry analysis (reference value: 43.6 %); assay type: functional
MGC-803 [7] = experiment: Induction of apoptosis in human MGC-803 cells assessed as late apoptotic cells at 10 uM incubated for 48 hrs by annexin V-FITC and PI staining based flow cytometry analysis (reference value: 2.96 %); assay type: functional
MGC-803 [8] = experiment: Induction of apoptosis in human MGC-803 cells assessed as necrotic cells at 20 uM incubated for 48 hrs by annexin V-FITC and PI staining based flow cytometry analysis (reference value: 0.03 %); assay type: functional
Homo sapiens = organism: Homo sapiens; experiment: Inhibition of human topoisomerase 2 assessed as EtBr intercalation into plasmid DNA by converting relaxed DNA into supercoiled DNA at 100 to 300 uM incubated for 30 mins by agarose gel electrophoresis method; conditions: dose 100-300 µM
MGC-803 [9] = experiment: Induction of cell cycle arrest in human MGC-803 cells assessed as G2/M phase at 10 uM incubated for 48 hrs by PI staining based flow cytometry analysis (reference value: 8.8 %); assay type: functional
MGC-803 [10] = experiment: Induction of apoptosis in human MGC-803 cells assessed as viable cells at 10 uM incubated for 48 hrs by annexin V-FITC and PI staining based flow cytometry analysis (reference value: 94.47 %); assay type: functional; conditions: read-out: Activity
MGC-803 [11] = experiment: Induction of apoptosis in human MGC-803 cells assessed as necrotic cells at 10 uM incubated for 48 hrs by annexin V-FITC and PI staining based flow cytometry analysis (reference value: 0.03 %); assay type: functional
[12] = target: DNA topoisomerase 2-alpha (Homo sapiens) (UniProt P11388); experiment: Poison activity at human topoisomerase 2alpha assessed as DNA cleavage by measuring linear DNA formation at 100 to 300 uM using supercoiled pBR322 DNA as substrate incubated for 30 mins by agarose gel electrophoresis method; conditions: dose 100-300 µM
MGC-803 [13] = experiment: Induction of apoptosis in human MGC-803 cells assessed as early apoptotic cells at 20 uM incubated for 48 hrs by annexin V-FITC and PI staining based flow cytometry analysis (reference value: 2.54 %); assay type: functional
MGC-803 [14] = experiment: Induction of apoptosis in human MGC-803 cells assessed as early apoptotic cells at 10 uM incubated for 48 hrs by annexin V-FITC and PI staining based flow cytometry analysis (reference value: 2.54 %); assay type: functional
[15] = Drug uptake in human MGC-803 cells at 10 uM incubated for 8 hrs by laser scanning confocal microscope; assay type: ADME, cell-based; conditions: mgc-803, 8 h
MGC-803 [16] = experiment: Induction of apoptosis in human MGC-803 cells assessed as late apoptotic cells at 20 uM incubated for 48 hrs by annexin V-FITC and PI staining based flow cytometry analysis (reference value: 2.96 %); assay type: functional
MGC-803 [17] = experiment: Induction of cell cycle arrest in human MGC-803 cells assessed as G0/G1 phase at 10 uM incubated for 48 hrs by PI staining based flow cytometry analysis (reference value: 47.6 %); assay type: functional
MGC-803 [18] = experiment: Induction of apoptosis in human MGC-803 cells assessed as viable cells at 20 uM incubated for 48 hrs by annexin V-FITC and PI staining based flow cytometry analysis (reference value: 94.47 %); assay type: functional; conditions: read-out: Activity

DNA topoisomerase 2-alpha (Homo sapiens), sequence (P11388 whole entry): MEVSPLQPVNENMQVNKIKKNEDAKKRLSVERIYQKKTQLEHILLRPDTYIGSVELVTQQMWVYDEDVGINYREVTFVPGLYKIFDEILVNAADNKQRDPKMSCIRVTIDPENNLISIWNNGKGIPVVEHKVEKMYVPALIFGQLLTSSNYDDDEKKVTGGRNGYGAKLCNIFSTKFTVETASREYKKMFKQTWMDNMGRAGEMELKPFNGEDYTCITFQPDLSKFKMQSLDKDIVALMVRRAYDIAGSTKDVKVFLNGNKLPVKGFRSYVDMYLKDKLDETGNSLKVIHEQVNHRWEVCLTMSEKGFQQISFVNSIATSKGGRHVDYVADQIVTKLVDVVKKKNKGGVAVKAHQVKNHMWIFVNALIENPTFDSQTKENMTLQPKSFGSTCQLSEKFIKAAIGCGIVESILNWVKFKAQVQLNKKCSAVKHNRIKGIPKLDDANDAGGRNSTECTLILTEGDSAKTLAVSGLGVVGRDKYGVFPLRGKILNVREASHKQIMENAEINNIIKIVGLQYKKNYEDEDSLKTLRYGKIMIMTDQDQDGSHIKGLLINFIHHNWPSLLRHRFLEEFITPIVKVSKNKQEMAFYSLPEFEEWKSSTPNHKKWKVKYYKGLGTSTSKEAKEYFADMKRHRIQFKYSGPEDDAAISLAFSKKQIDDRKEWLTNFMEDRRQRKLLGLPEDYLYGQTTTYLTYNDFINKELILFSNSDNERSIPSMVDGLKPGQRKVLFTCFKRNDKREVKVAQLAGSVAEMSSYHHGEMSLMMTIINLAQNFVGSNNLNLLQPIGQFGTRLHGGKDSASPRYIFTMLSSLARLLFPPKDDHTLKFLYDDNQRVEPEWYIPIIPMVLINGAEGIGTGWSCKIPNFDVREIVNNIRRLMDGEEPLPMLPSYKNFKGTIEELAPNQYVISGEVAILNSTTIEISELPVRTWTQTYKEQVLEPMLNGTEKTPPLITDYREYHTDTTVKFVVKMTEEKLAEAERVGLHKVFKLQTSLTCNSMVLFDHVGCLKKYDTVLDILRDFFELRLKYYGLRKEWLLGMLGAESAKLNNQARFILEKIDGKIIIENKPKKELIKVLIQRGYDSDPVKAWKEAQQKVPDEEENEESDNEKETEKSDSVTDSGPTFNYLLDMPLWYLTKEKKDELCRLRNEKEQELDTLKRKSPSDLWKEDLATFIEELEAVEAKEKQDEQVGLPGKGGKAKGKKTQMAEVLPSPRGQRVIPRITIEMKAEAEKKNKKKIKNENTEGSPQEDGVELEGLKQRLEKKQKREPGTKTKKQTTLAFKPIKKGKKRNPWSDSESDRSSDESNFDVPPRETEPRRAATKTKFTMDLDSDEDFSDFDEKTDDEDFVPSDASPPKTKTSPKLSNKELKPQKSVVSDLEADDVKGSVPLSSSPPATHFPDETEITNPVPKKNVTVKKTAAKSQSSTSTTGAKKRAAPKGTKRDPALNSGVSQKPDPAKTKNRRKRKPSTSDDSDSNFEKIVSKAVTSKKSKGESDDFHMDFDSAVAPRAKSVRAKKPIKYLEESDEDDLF

IC50 (BEL-7404 tumor cell line)	IC50 (MCF7)	IC50 (MGC-803 [3])	IC50 (HeLa)	inhibition [4]	Compound	IC50 [1]	inhibition (MGC-803 [2])	inhibition (MGC-803 [5])	further results
50.2 µM	37.8 µM	39.3 µM	50 µM	inactive	Fc1ccc2c(c1)C1=NN(c3ccccc3)C(c3c[nH]c4ccccc34)C1CS2 (stereo unspecified)	175 µM	Active	Active	–
21 µM	25.6 µM	20.5 µM	25 µM	inactive	Clc1cc(Cl)c2c(c1)C1=NN(c3ccccc3)C(c3c[nH]c4ccccc34)C1CS2 (stereo unspecified)	105 µM	Active	Active	Activity (MGC-803 [6]): 25.4%; Activity (MGC-803 [7]): 4.99%; Activity (MGC-803 [8]): 2.54%; inhibition (Homo sapiens): inactive; Activity (MGC-803 [9]): 24.9%; viability at 10 µM (MGC-803 [10]): 89.6%; Activity (MGC-803 [11]): 0.5%; inhibition [12]: inactive; Activity (MGC-803 [13]): 12.17%; Activity (MGC-803 [14]): 4.92%; Drug uptake [15]: Active; Activity (MGC-803 [16]): 36.06%; Activity (MGC-803 [17]): 49.7%; viability at 20 µM (MGC-803 [18]): 49.2%
> 120 µM	68 µM	21.9 µM	36.4 µM	inactive	Cc1ccc2c(c1)C1=NN(c3ccccc3)C(c3c[nH]c4ccccc34)C1CS2 (stereo unspecified)	158 µM	Active	Active	–
36.2 µM	35.7 µM	31.1 µM	31.6 µM	inactive	Fc1cccc2c1SCC1C2=NN(c2ccccc2)C1c1c[nH]c2ccccc12 (stereo unspecified)	158 µM	Active	Active	–
36.2 µM	51.1 µM	33.1 µM	48.7 µM	inactive	Cn1cc(C2C3CSc4ccc(Cl)cc4C3=NN2c2ccccc2)c2ccccc21 (stereo unspecified)	262 µM	–	–	–
37.5 µM	37.7 µM	35.6 µM	39.7 µM	inactive	Cc1ccc(C)c2c1SCC1C2=NN(c2ccccc2)C1c1c[nH]c2ccccc12 (stereo unspecified)	183 µM	Active	Active	–
> 120 µM	72.8 µM	27.1 µM	27.4 µM	inactive	Clc1cc2c(cc1Cl)C1=NN(c3ccccc3)C(c3c[nH]c4ccccc34)C1CS2 (stereo unspecified)	164 µM	Active	Active	–
61.9 µM	47.8 µM	27.8 µM	41.1 µM	inactive	Cc1cc2c(cc1F)C1=NN(c3ccccc3)C(c3c[nH]c4ccccc34)C1CS2 (stereo unspecified)	150 µM	–	Active	–
42.9 µM	26.1 µM	15.4 µM	38.2 µM	inactive	Clc1ccc2c(c1)C1=NN(c3ccccc3)C(c3c[nH]c4ccccc34)C1CS2 (stereo unspecified)	160 µM	Active	Active	Activity (MGC-803 [6]): 25.3%; Activity (MGC-803 [7]): 17.02%; Activity (MGC-803 [8]): 2.18%; Activity (MGC-803 [9]): 36.6%; viability at 10 µM (MGC-803 [10]): 69.9%; Activity (MGC-803 [11]): 0.73%; Activity (MGC-803 [13]): 8.17%; Activity (MGC-803 [14]): 12.32%; Drug uptake [15]: Active; Activity (MGC-803 [16]): 52.74%; Activity (MGC-803 [17]): 38.1%; viability at 20 µM (MGC-803 [18]): 36.9%
> 120 µM	> 120 µM	36.4 µM	> 120 µM	inactive	COc1ccc2c(c1)C1=NN(c3ccccc3)C(c3c[nH]c4ccccc34)C1CS2 (stereo unspecified)	120 µM	–	Active	–
23.7 µM	27 µM	26.5 µM	29.2 µM	inactive	Cc1cc(C)c2c(c1)C1=NN(c3ccccc3)C(c3c[nH]c4ccccc34)C1CS2 (stereo unspecified)	134 µM	–	–	–
7.76 µM	1.45 µM	11.2 µM	5.35 µM	–	COc1cc([C@@H]2c3cc4c(cc3[C@@H](O[C@@H]3O[C@@H]5CO[C@@H](C)O[C@H]5[C@H](O)[C@H]3O)[C@H]3COC(=O)[C@H]23)OCO4)cc(OC)c1O [ETOPOSIDE]	80.4 µM	–	–	–
32.1 µM	37.1 µM	29.3 µM	35.1 µM	inactive	Clc1ccc2c(c1)C1=NN(c3ccccc3)C(c3c[nH]c4ccc(Br)cc34)C1CS2 (stereo unspecified)	154 µM	–	–	–
57.3 µM	38 µM	28 µM	37 µM	inactive	Cc1cccc2c1SCC1C2=NN(c2ccccc2)C1c1c[nH]c2ccccc12 (stereo unspecified)	189 µM	–	Active	–
